Read-outs that look alike come from different tables or passages of the source.
Assays:
rats [1] = conditions: continuous tail vein infusion at 2×MIR, LORR maintained 1 hour, Table D4
Procedure: Pharmacological Effects of the Compounds on Continuous Infusion in Rats
Adult male Sprague-Dawley rats with body weight ranging from 250 to 300 gm were selected for continuous infusion test. […] Time to recovery of righting reflex from stopping infusion, and time to fully awake from stopping infusion were recorded.

rats [2] = type: in vivo, rat; conditions: rats of the MAP/HR figures, 2×ED50, tail vein
rats [3] = test: Pharmacological characteristics at equivalent doses (2×ED50) in rats; conditions: 2×ED50, tail vein; for Adverse reactions: Red urine (incidence): DMSO solution (DMSO alone 10/10); for Onset time: time of LORR; for Adverse reactions: Tremor (incidence): animals affected/animals
Summary of the method: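 Anesthesia onset, recorded as time of LORR, was measured after a 2×ED50 tail-vein injection (0.6 mL, 0.1 mL/s). Animals were male Sprague-Dawley rats of 250-300 g, n=8.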

rats [4] = system: rats
Procedure: Adult male Sprague-Dawley rats (250-300 g) were selected for the experiment. […] The anesthesia effects of the compounds were assessed in rats using a LORR assay and a period >30 s was considered as an indicator of general anesthesia. Then the up and down method was used to determine 50% effective dose (ED50). The drugs were administered through the tail vein of rats in a volume of 0.6 mL and at a rate of 0.1 mL/s.

rats [5] = type: in vivo, rat; conditions: rats of the MAP/HR figures, 2×ED50, tail vein; same value in min
Summary of the method: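 Hemodynamic stability judged from mean arterial pressure and heart rate, recorded at 15 s intervals over 30 min pre- and post-dose. Dosing was through a tail-vein indwelling catheter in rats carrying implanted aortic/ventricular catheters and ECG wires, operated ≥1 week earlier.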

rats [6] = test: Loss of righting reflexes (LORR) assay in rats, ED50 by up and down method; type: in vivo, rat; conditions: tail vein, class symbols; for ED50: Rattus norvegicus
Summary of the method: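 ED50 obtained by up-and-down dosing, with righting-reflex loss over 30 s counted as general anesthesia. Compounds injected into the tail vein (0.1 mL/s) of male Sprague-Dawley rats weighing 250-300 g.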

## C#CC1(OC(=O)c2cncn2[C@H](C)c2ccccc2)CCC1 [Compound D1]
Rats [1]
  Onset time: 3 to 4 min
  Recovery time after stopping infusion: 11 to 14 min
  Types and incidence of adverse reactions: Tremor (2/6)
Rats [2]
  recovery time of the test animals' righting reflex: 785 s
Rats [3]
  Righting reflex duration: 4.28 ± 1.78 min
  Adverse reactions: Red urine (incidence): Red urine (8/8)
  Onset time: 0.26 ± 0.10 min
Rats [4]
  Approximate therapeutic index: >14
  Minimal lethal dose: >6 mg/kg
Rats [5]
  recovery time of the test animals' righting reflex: 13.08 min
Rats [6]
  ED50: 0.1 to 0.5 mg/kg

## CC#CC(C)OC(=O)c1c(F)ncn1[C@H](C)c1ccccc1 (stereo partly drawn) [Compound E16]
Rats [2]
  recovery time of the test animals' righting reflex: 200 s
Rats [3]
  Righting reflex duration: 3.59 ± 1.22 min
  Adverse reactions: Red urine (incidence): (8/8)
  Onset time: 0.30 ± 0.09 min
Rats [4]
  Approximate therapeutic index: >20
  Minimal lethal dose: >4 mg/kg
Rats [5]
  recovery time of the test animals' righting reflex: 3.33 min
Rats [6]
  ED50: 0.1 to 0.5 mg/kg

## CC#CC(C)(C)OC(=O)c1c(F)ncn1[C@H](C)c1ccccc1 [Compound E17]
Rats [2]
  recovery time of the test animals' righting reflex: 196 s
Rats [3]
  Adverse reactions: Muscle twitching (incidence): (1/8),
  Righting reflex duration: 3.12 ± 1.61 min
  Adverse reactions: Red urine (incidence): (8/8)
  Onset time: 0.26 ± 0.07 min
Rats [4]
  Approximate therapeutic index: >32
  Minimal lethal dose: >9 mg/kg
Rats [5]
  recovery time of the test animals' righting reflex: 3.27 min
Rats [6]
  ED50: 0.1 to 0.5 mg/kg

## C=C=CC(C)OC(=O)c1c(F)ncn1[C@H](C)c1ccccc1 (stereo partly drawn) [Compound E18]
Rats [2]
  recovery time of the test animals' righting reflex: 158 s
Rats [3]
  Righting reflex duration: 2.51 ± 1.69 min
  Adverse reactions: Red urine (incidence): (8/8)
  Onset time: 0.40 ± 0.20 min
Rats [4]
  Approximate therapeutic index: >20
  Minimal lethal dose: >1 mg/kg
Rats [5]
  recovery time of the test animals' righting reflex: 2.63 min
Rats [6]
  ED50: 0.01 to 0.1 mg/kg

## C=C=CC(C)(C)OC(=O)c1c(F)ncn1[C@H](C)c1ccccc1 [Compound E19]
Rats [2]
  recovery time of the test animals' righting reflex: 56 s
Rats [3]
  Righting reflex duration: 0.80 ± 0.30 min
  Adverse reactions: Red urine (incidence): urine (8/8)
  Adverse reactions: Tremor (incidence): (3/8), Red
  Onset time: 0.34 ± 0.13 min
Rats [4]
  Approximate therapeutic index: >40
  Minimal lethal dose: >4 mg/kg
Rats [5]
  recovery time of the test animals' righting reflex: 0.93 min
Rats [6]
  ED50: 0.01 to 0.1 mg/kg

## C=CC#CC(C)OC(=O)c1c(F)ncn1[C@H](C)c1ccccc1 (stereo partly drawn) [Compound E20]
Rats [2]
  recovery time of the test animals' righting reflex: 51 s
Rats [3]
  Adverse reactions: Tongue stretching (incidence): (2/8),
  Righting reflex duration: 0.75 ± 0.21 min
  Adverse reactions: Red urine (incidence): (8/8)
  Onset time: 0.51 ± 0.16 min
Rats [4]
  Approximate therapeutic index: >80
  Minimal lethal dose: >5 mg/kg
Rats [5]
  recovery time of the test animals' righting reflex: 0.85 min
Rats [6]
  ED50: 0.01 to 0.1 mg/kg

## C=CC#CC(C)(C)OC(=O)c1c(F)ncn1[C@H](C)c1ccccc1 [Compound E21]
Rats [2]
  recovery time of the test animals' righting reflex: 155 s
Rats [3]
  Righting reflex duration: 2.76 ± 2.17 min
  Sedation duration (mg/kg): 7.71 ± 3.03
  Adverse reactions: Red urine (incidence): (8/8)
  Onset time: 0.49 ± 0.20 min
Rats [4]
  Approximate therapeutic index: >12
  Minimal lethal dose: >9 mg/kg
Rats [5]
  recovery time of the test animals' righting reflex: 2.58 min
Rats [6]
  ED50 (mg/kg): C (C indicates that the measured ED50 is in the range of 0.50-1.00 mg/kg (excluding 0.50 mg/kg, including 1.00 mg/kg).)

## CCC(CC)OC(=O)c1c(F)ncn1[C@H](C)c1ccccc1 [Compound E22]
Rats [2]
  recovery time of the test animals' righting reflex: 66 s
Rats [3]
  Righting reflex duration: 0.99 ± 0.70 min
  Sedation duration (mg/kg): 5.51 ± 1.13
  Adverse reactions: Red urine (incidence): urine (8/8)
  Adverse reactions: Tremor (incidence): (4/8), Red
  Onset time: 0.73 ± 0.13 min
Rats [4]
  Approximate therapeutic index: >30
  Minimal lethal dose: >4 mg/kg
Rats [5]
  recovery time of the test animals' righting reflex: 1.10 min
Rats [6]
  ED50 (mg/kg): B (B means that the measured ED50 is in the range of 0.10-0.50 mg/kg (excluding 0.10 mg/kg, including 0.50 mg/kg).)

## CC(C)OC(=O)c1c(F)ncn1[C@H](C)c1ccccc1 [Compound E24]
Rats [2]
  recovery time of the test animals' righting reflex: 75 s
Rats [3]
  Righting reflex duration: 1.00 ± 0.29 min
  Adverse reactions: Red urine (incidence): (8/8)
  Onset time: 0.38 ± 0.14 min
Rats [4]
  Approximate therapeutic index: >45
  Minimal lethal dose: >4 mg/kg
Rats [5]
  recovery time of the test animals' righting reflex: 1.25 min
Rats [6]
  ED50: 0.01 to 0.1 mg/kg

## C#CC(C)(C)OC(=O)c1c(F)ncn1[C@H](C)c1ccccc1 [Compound E25]
Rats [2]
  recovery time of the test animals' righting reflex: 134 s
Rats [3]
  Adverse reactions: Restlessness (incidence): (2/8), Red
  Righting reflex duration: 2.10 ± 0.86 min
  Adverse reactions: Red urine (incidence): urine (8/8)
  Onset time: 0.25 ± 0.09 min
Rats [4]
  Approximate therapeutic index: >24
  Minimal lethal dose: >6 mg/kg
Rats [5]
  recovery time of the test animals' righting reflex: 2.23 min
Rats [6]
  ED50: 0.1 to 0.5 mg/kg

## C[C@H](c1ccccc1)n1cnc(F)c1C(=O)OCC(C)(C)C [Compound E26]
Rats [2]
  recovery time of the test animals' righting reflex: 94 s
Rats [3]
  Righting reflex duration: 1.45 ± 0.41 min
  Sedation duration (mg/kg): 6.37 ± 1.31
  Adverse reactions: Red urine (incidence): (8/8)
  Onset time: 0.48 ± 0.09 min
Rats [4]
  Approximate therapeutic index: >50
  Minimal lethal dose: >4 mg/kg
Rats [5]
  recovery time of the test animals' righting reflex: 1.57 min
Rats [6]
  ED50 (mg/kg): A (A indicates that the measured ED50 is in the range of 0.01-0.10 mg/kg (including 0.01 and 0.10 mg/kg).)

## C[C@H](c1ccccc1)n1cnc(F)c1C(=O)OC1(C)CCC1 [Compound E27]
Rats [2]
  recovery time of the test animals' righting reflex: 246 s
Rats [3]
  Righting reflex duration: 4.13 ± 1.12 min
  Sedation duration (mg/kg): 10.23 ± 1.60
  Adverse reactions: Red urine (incidence): (8/8)
  Onset time: 0.31 ± 0.10 min
Rats [4]
  Approximate therapeutic index: >24
  Minimal lethal dose: >6 mg/kg
Rats [5]
  recovery time of the test animals' righting reflex: 4.10 min
Rats [6]
  ED50 (mg/kg): B (B means that the measured ED50 is in the range of 0.10-0.50 mg/kg (excluding 0.10 mg/kg, including 0.50 mg/kg).)

## CCC(C)(C)OC(=O)c1c(F)ncn1[C@H](C)c1ccccc1 [Compound E28]
Rats [2]
  recovery time of the test animals' righting reflex: 150 s
Rats [3]
  Righting reflex duration: 2.69 ± 1.07 min
  Adverse reactions: Red urine (incidence): (8/8)
  Onset time: 0.43 ± 0.19 min
Rats [4]
  Approximate therapeutic index: >16
  Minimal lethal dose: >6 mg/kg
Rats [5]
  recovery time of the test animals' righting reflex: 2.5 min
Rats [6]
  ED50: 0.1 to 0.5 mg/kg

## CCCC(C)(C)OC(=O)c1c(F)ncn1[C@H](C)c1ccccc1 [Compound E29]
Rats [2]
  recovery time of the test animals' righting reflex: 165 s
Rats [3]
  Righting reflex duration: 2.74 ± 2.63 min
  Adverse reactions: Red urine (incidence): (8/8)
  Onset time: 0.48 ± 0.21 min
Rats [4]
  Approximate therapeutic index: >15
  Minimal lethal dose: >6 mg/kg
Rats [5]
  recovery time of the test animals' righting reflex: 2.75 min
Rats [6]
  ED50: 0.1 to 0.5 mg/kg

## CCC(C)(CC)OC(=O)c1c(F)ncn1[C@H](C)c1ccccc1 [Compound E30]
Rats [2]
  recovery time of the test animals' righting reflex: 80 s
Rats [3]
  Righting reflex duration: 1.23 ± 0.58 min
  Adverse reactions: Red urine (incidence): (8/8)
  Onset time: 0.60 ± 0.18 min
Rats [4]
  Approximate therapeutic index: >42
  Minimal lethal dose: >6 mg/kg
Rats [5]
  recovery time of the test animals' righting reflex: 1.33 min
Rats [6]
  ED50: 0.1 to 0.5 mg/kg

Reference: patent US11434205B2, “Substituted imidazole carboxylate derivatives and the use thereof” (priority 2018, dated 2022)
